The results in this text go back to ChEMBL document CHEMBL3399943, “In vitro and in silico evaluation of twelve newly-synthesized 1-acetamide-5-methoxy-2-oxindoles as 5-Ht₇ receptor ligands” (Bioorg Med Chem Lett, 2015).
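Also: displacement of bound [3H]-SB269970 at the 5-HT7 receptor (origin unspecified), test concentration 10 µM, 60 min incubation.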

For this test, the target named is 5-hydroxytryptamine receptor 7 (Homo sapiens) (UniProt P34969).
5-hydroxytryptamine receptor 7 (Homo sapiens), sequence (P34969 whole entry): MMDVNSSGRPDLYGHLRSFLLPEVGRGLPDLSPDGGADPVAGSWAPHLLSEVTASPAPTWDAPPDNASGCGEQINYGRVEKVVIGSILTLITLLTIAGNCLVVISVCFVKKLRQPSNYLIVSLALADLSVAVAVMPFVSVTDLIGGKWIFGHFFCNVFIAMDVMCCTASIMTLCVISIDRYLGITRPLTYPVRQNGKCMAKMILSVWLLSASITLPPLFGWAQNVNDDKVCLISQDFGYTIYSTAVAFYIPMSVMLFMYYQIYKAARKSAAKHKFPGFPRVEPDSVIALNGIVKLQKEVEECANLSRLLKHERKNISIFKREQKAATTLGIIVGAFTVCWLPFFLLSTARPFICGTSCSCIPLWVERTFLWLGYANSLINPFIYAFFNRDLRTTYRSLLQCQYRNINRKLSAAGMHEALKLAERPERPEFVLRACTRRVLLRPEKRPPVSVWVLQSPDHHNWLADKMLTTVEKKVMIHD
Description: Displacement of [3H]-SB269970 from 5-HT7 receptor (unknown origin) at 10 uM after 60 mins
The compound `COc1ccc2c(c1)CC(=O)N2C(C(=O)Nc1c(C)cccc1C)C(C)C` (configuration not stated) registered a log(activity) of 1.38.

Consider `COc1ccc2c(c1)CC(=O)N2C(C(=O)Nc1c(C)cccc1C)C(C)(C)C` (configuration not stated), for which the log(activity) stood at 0.954. The result for `COc1ccc2c(c1)CC(=O)N2C(C(=O)NC1CCCCC1)c1ccc(Cl)cc1` (configuration not stated) reads 1.3. The result for `COc1ccc2c(c1)CC(=O)N2C(C(=O)NC(C)(C)C)C(C)C` (configuration not stated) reads 1.48. The result for `COc1ccc2c(c1)CC(=O)N2C(C(=O)NC1CCCCC1)C(C)(C)C` (configuration not stated) reads 1.04; that for `COc1ccc2c(c1)CC(=O)N2C(C(=O)Nc1c(C)cccc1C)c1ccccc1` (configuration not stated), 1.2; that for `COc1ccc2c(c1)CC(=O)N2C(C(=O)NC(C)(C)C)C(C)(C)C` (configuration not stated), 1.15. On to `COc1ccc2c(c1)CC(=O)N2C(C(=O)NC(C)(C)C)c1ccc(Cl)cc1` (configuration not stated), for which the log(activity) amounted to 1.2. `COc1ccc2c(c1)CC(=O)N2C(C(=O)NC(C)(C)C)c1ccccc1` (configuration not stated) came in with a log(activity) of 1.18. The result for `COc1ccc2c(c1)CC(=O)N2C(C(=O)NC1CCCCC1)c1ccccc1` (configuration not stated) reads 1; that for `COc1ccc2c(c1)CC(=O)N2C(C(=O)NC1CCCCC1)C(C)C` (configuration not stated), 1.2; that for `COc1ccc2c(c1)CC(=O)N2C(C(=O)Nc1c(C)cccc1C)c1ccc(Cl)cc1` (configuration not stated), 1.25.
